From US20260274955A1, “ANTIBODIES FOR TARGETING CD28 AND USES THEREOF” (Janux Therapeutics, Inc., priority 2023, published 2026)
pIC50, pKd: −log10 of the molar value. Where two headings read alike, the source gives them in different places.

Experiments:
[1] = molecular target: anti-CD28 Fab (SEQ ID NOs: 202, 203); experiment: Competition ELISA: peptide inhibition of anti-CD28 Fab binding to plate-bound CD28 (also alanine scanning peptides); details: anti-CD28 Fab fixed at 1 nM
Protocol: Ab-1 fixed at 1 nanomolar (nM) concentration was pre-incubated with 0-100 micromolar (μM) titrated peptides. After a short pre-incubation period, the mixture of titrated peptide with fixed Ab-1 were added to the CD28 antigen coated plates. After a short incubation on the plates, bound Ab-1 was detected with a standard horse radish peroxidase conjugated secondary antibody.
(§1) The anti-CD28 Fab was fixed at a concentration of 1 nM and incubated with titrated 0-100 μM peptides.

[2] = molecular target: anti-CD28 scFv (disulfide) (SEQ ID NO: 67); experiment: Competition ELISA: peptide inhibition of anti-CD28 scFv (disulfide) binding to plate-bound CD28; details: read-out: anti-CD28 scFv (disulfide) Competition ELISA IC50; anti-CD28 scFv fixed at 0.3 nM, titrated 0-100 μM peptides, plate-bound CD28 antigen
Protocol: […] After a short pre-incubation period, the mixture of titrated peptide with fixed Ab-1 were added to the CD28 antigen coated plates. After a short incubation on the plates, bound Ab-1 was detected with a standard horse radish peroxidase conjugated secondary antibody.
as §1

[3] = molecular target: anti-CD28 scFv (SEQ ID NO: 35); experiment: Kinetic binding by bio-layer interferometry (Octet RED96): anti-CD28 scFv to peptides; set-up: species or system human; details: for pKd: CD28 scFv titrated 100-12.5 nM, 200 nM peptide load
Protocol: (§2) Briefly, streptavidin biosensors were loaded with biotinylated peptides and baselined in buffer. […] After a short association period, sensors were transferred into buffer and the dissociation of bound anti-CD28 scFv was measured. The timing and steps of the experiment are shown in the accompanying table. Association and dissociation signals were recorded in real time and analyzed using a 1:1 binding model within the instrument software. Analysis using a 1:1 binding model enabled the calculation of the on and off rate constants as well as affinity, KD.
as §2, with “KD. FIGS. 48A-48F illustrate kinetic binding of anti-CD28 scFv binding to peptides as measured by Octet. FIGS. 48G-48U illustrate kinetic binding of peptides to the anti-CD28 scFv as measured by Octet.” for “KD.”

[4] = Table 17, 0-100 μM peptide, read-out: Competition ELISA IC50
[5] = BLI Octet RED96, biotinylated peptide loaded on streptavidin sensor, anti-CD28 scFv 100-12.5 nM, 1:1 binding model

Sequence of anti-CD28 Fab (SEQ ID NOs: 202, 203) (as listed by the source): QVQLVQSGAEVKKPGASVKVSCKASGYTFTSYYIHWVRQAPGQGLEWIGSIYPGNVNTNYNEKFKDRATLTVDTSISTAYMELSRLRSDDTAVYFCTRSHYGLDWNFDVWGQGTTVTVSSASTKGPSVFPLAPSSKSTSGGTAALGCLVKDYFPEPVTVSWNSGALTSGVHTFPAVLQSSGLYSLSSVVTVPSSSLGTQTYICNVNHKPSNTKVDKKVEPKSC
Sequence of anti-CD28 Fab (SEQ ID NOs: 202, 203) (as listed by the source): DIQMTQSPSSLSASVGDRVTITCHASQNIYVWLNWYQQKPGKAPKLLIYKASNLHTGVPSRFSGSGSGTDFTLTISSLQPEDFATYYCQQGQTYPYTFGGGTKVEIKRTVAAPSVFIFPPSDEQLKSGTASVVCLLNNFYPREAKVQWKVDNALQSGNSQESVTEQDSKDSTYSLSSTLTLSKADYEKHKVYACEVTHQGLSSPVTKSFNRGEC
Sequence of anti-CD28 scFv (SEQ ID NO: 35) (as listed by the source): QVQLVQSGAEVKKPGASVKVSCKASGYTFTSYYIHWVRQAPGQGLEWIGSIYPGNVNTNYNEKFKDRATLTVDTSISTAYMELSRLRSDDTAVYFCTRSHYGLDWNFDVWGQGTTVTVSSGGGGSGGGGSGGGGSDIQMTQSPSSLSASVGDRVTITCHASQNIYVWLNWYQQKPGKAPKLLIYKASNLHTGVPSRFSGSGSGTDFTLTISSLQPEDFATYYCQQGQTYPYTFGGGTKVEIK
Sequence of anti-CD28 scFv (disulfide) (SEQ ID NO: 67) (as listed by the source): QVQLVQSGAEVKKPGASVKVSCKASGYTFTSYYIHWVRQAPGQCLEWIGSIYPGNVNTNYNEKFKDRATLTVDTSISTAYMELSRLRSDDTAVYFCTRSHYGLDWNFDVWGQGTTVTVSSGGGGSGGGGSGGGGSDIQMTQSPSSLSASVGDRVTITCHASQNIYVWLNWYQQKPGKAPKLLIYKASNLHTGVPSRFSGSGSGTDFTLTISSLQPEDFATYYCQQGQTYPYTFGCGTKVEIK

## ACAGHAWQYINKCL [Peptide-59, alanine scanning peptide of Peptide-39]
[1]; titrated 0-100 μM peptides, plate-bound CD28 antigen, read-out: anti-CD28 Fab Competition ELISA IC50
  pIC50: < 4.00
[2]
  pIC50: < 4.00

## GYCHYWGDMVMWCG [Peptide-118]
[3]; Table 28, 1:1 model
  pKd: 7.77
[3]; Table 28, CD28 scFv, 1:1 model
  kdis: 0.00167 s⁻¹
  kon: 98700 M⁻¹ s⁻¹

## HCSGHHWLQVWKCF [Peptide-82, optimization library of Peptide-39]
[1]; Table 18, 0-100 μM peptide, read-out: Competition ELISA IC50
  pIC50: < 4.00

## LCAAGFTYPWPLCL [Peptide-107, optimization library of Peptide-44]
[1]; [4]
  pIC50: < 4.00

## LCKPGVPYKWPTCL [Peptide-108, optimization library of Peptide-44]
[1]; [4]
  pIC50: < 4.00

## MDWCPIDLWNECFF [Peptide-137]
[3]; [5]
  kdis: 0.00369 s⁻¹
  kon: 51400 M⁻¹ s⁻¹

## MDWCPIHLWHVCFN [Peptide-138]
[3]; [5]
  kdis: 0.00295 s⁻¹
  kon: 59100 M⁻¹ s⁻¹

## MDWCPIYLWSECFN [Peptide-139]
[3]; [5]
  kdis: 0.00153 s⁻¹
  kon: 29000 M⁻¹ s⁻¹

## MDWCPLHMWHECFS [Peptide-141]
[3]; [5]
  kdis: 0.00497 s⁻¹
  kon: 39000 M⁻¹ s⁻¹

## MDWCPLYLWNECFN [Peptide-142]
[3]; [5]
  kdis: 0.00252 s⁻¹
  kon: 36700 M⁻¹ s⁻¹

## MDWCPRDLWDLCFA [Peptide-143]
[3]; [5]
  kdis: 0.00351 s⁻¹
  kon: 35900 M⁻¹ s⁻¹

## MDWCPRDLWHECFA [Peptide-144]
[3]; [5]
  kdis: 0.00277 s⁻¹
  kon: 30000 M⁻¹ s⁻¹

## MDWCPRDLWHLCFS [Peptide-145]
[3]; [5]
  kdis: 0.00265 s⁻¹
  kon: 51100 M⁻¹ s⁻¹

## MDWCPRDLWSECFF [Peptide-146]
[3]; [5]
  kdis: 0.0031 s⁻¹
  kon: 38800 M⁻¹ s⁻¹

## MDWCPRDLWVHCFA [Peptide-1]
[3]; [5]
  kdis: 0.00154 s⁻¹
  kon: 36400 M⁻¹ s⁻¹

## MDWCPRDMWDECFA [Peptide-147]
[3]; [5]
  kdis: 0.00433 s⁻¹
  kon: 28400 M⁻¹ s⁻¹

## MDWCPRDMWSECFA [Peptide-148]
[3]; [5]
  kdis: 0.0032 s⁻¹
  kon: 16700 M⁻¹ s⁻¹

## MDWCPRDMWSVCFS [Peptide-149]
[3]; [5]
  kdis: 0.00812 s⁻¹
  kon: 21700 M⁻¹ s⁻¹

## MDWCPRERWVDCFF [Peptide-116]
[3]; Table 28, 1:1 model
  pKd: 6.42
[3]; Table 28, CD28 scFv, 1:1 model
  kdis: 0.0123 s⁻¹
  kon: 32500 M⁻¹ s⁻¹

## MDWCPRERWVDCFF [Peptide-156]
[3]; [5]
  kdis: 0.0115 s⁻¹
  kon: 41500 M⁻¹ s⁻¹

## MDWCPRFMWDECFN [Peptide-150]
[3]; [5]
  kdis: 0.00364 s⁻¹
  kon: 27100 M⁻¹ s⁻¹

## MDWCPRHMWNYCFA [Peptide-151]
[3]; [5]
  kdis: 0.00218 s⁻¹
  kon: 61900 M⁻¹ s⁻¹

## MDWCPRSLWHECFA [Peptide-152]
[3]; [5]
  kdis: 0.00201 s⁻¹
  kon: 38900 M⁻¹ s⁻¹

## MDWCPRYLWHVCFA [Peptide-153]
[3]; [5]
  kdis: 0.00187 s⁻¹
  kon: 88900 M⁻¹ s⁻¹

## MDWCPVHLWSVCFA [Peptide-155]
[3]; [5]
  kdis: 0.00443 s⁻¹
  kon: 92300 M⁻¹ s⁻¹
